Drawing on US11806346B2, “HTT modulators for treating Huntington's disease” (CHDI Foundation, Inc., priority 2020, dated 2023), this text covers EC50 for 38 compounds.

Molecules are shown by their SMILES.

The EC50 is the midpoint of the concentration-response curve.

One assay concerns tHTT (total HTT protein). In words: Time-resolved FRET assay, total huntingtin (tHTT) detection in cell lysates. Type of assay: cell-based, human. The following applies: GEN020 hESCs (mutant 48 Q repeat allele), compounds added for 48 hours, TR-FRET on lysate; read-out: tHTT EC50. An outline of the steps: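 TR-FRET readout on cell lysates, with the donor/acceptor ratio reflecting relative total HTT.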
For the compound `Cc1cn2cc(NC(=O)c3cnc(N4CC[C@@H](CN5CC[C@@H](F)C5)C4)cn3)cc(F)c2n1` [Example 305, N-(8-fluoro-2-methylimidazo[1,2-a]pyridin-6-yl)-5-((S)-3-(((R)-3-fluoropyrrolidin-1-yl)methyl)pyrrolidin-1-yl)pyrazine-2-carboxamide], the EC50 was in the range of 100 to 500 nM.

For the compound `Cc1cn2cc(NC(=O)c3cnc(N4CC(CN5CC(F)C5)C4)cn3)cc(F)c2n1` [Example 307, N-(8-Fluoro-2-methylimidazo[1,2-a]pyridin-6-yl)-5-(3-((3-fluoroazetidin-1-yl)methyl)azetidin-1-yl)pyrazine-2-carboxamide], the EC50 lay within 100 to 500 nM. Same read-out and setting: the result for `Cc1cn2cc(NC(=O)c3cnc(N4CC5NCCC54)cn3)cc(F)c2n1` (centres unmarked) [Example 308, 5-(2,6-diazabicyclo[3.2.0]heptan-6-yl)-N-(8-fluoro-2-methylimidazo[1,2-a]pyridin-6-yl)pyrazine-2-carboxamide] reads 100 to 500 nM. For the compound `Cc1cn2cc(NC(=O)c3cnc(N4CC[C@@H](CNC5CC5)C4)cn3)cc(Cl)c2n1` [Example 311], the 50% effective concentration (EC50) lay in the range of 100 to 500 nM. `Cc1cn2cc(NC(=O)c3cnc(N4CC(CNC5CC5)C4)cn3)cc(Cl)c2n1` [Example 312]: the EC50 was < 100 nM.

`COc1cc(NC(=O)c2cnc(N3CC[C@@H](CNC4CC4)C3)cn2)cn2cc(C)nc12` [Example 313]: the concentration for a half-maximal effect (EC50) fell in the range of 100 to 500 nM. Still for that read-out and setting: the result for `COc1cc(NC(=O)c2cnc(N3CC(CNC4CC4)C3)cn2)cn2cc(C)nc12` [Example 314] reads < 100 nM; that for `Cc1cn2cc(NC(=O)c3cnc(N4CCC(CNC5CC5)C4=O)cn3)cc(F)c2n1` (centres unmarked) [Example 316, 5-(3-((cyclopropylamino)methyl)-2-oxopyrrolidin-1-yl)-N-(8-fluoro-2-methylimidazo[1,2-a]pyridin-6-yl)pyrazine-2-carboxamide], 100 to 500 nM. Still for that read-out and setting: to `Cc1cn2cc(NC(=O)c3cnc(N4C[C@H]5CN(C)C[C@H]5C4=O)cn3)cc(F)c2n1` [Example 317, N-(8-fluoro-2-methylimidazo[1,2-a]pyridin-6-yl)-5-((3aR,6aS)-5-methyl-1-oxohexahydropyrrolo[3,4-c]pyrrol-2(1H)-yl)pyrazine-2-carboxamide] belongs 100 to 500 nM.

On to `CN(CC1CN(c2cnc(C(=O)Nc3cc(F)c4nn(C)cc4c3)cn2)C1)C1CC1` [Example 320, 5-(3-((cyclopropyl(methyl)amino)methyl)azetidin-1-yl)-N-(7-fluoro-2-methyl-2H-indazol-5-yl)pyrazine-2-carboxamide], for which the concentration giving a half-maximal response (EC50) is 100 to 500 nM.

In the case of `Cn1cc2cc(NC(=O)c3cnc(N4CC(CCNC5CC5)C4)cn3)cc(F)c2n1` [Example 321, 5-(3-(2-(cyclopropylamino)ethyl)azetidin-1-yl)-N-(7-fluoro-2-methyl-2H-indazol-5-yl)pyrazine-2-carboxamide], the EC50 lay in the range of 500 to 1000 nM.

Turning to `COCCOC1CN(CC2CN(c3cnc(C(=O)Nc4cc(F)c5nc(C)cn5c4)cn3)C2)C1` [Example 322, N-(8-fluoro-2-methyl-imidazo[1,2-a]pyridin-6-yl)-5-[3-[[3-(2-methoxyethoxy)azetidin-1-yl]methyl]azetidin-1-yl]pyrazine-2-carboxamide], the concentration giving a half-maximal response (EC50) was 100 to 500 nM. Same read-out and setting: the result for `CCN[C@H]1CN(c2cnc(C(=O)Nc3cn4cc(C)nc4c(OC)n3)cn2)C[C@H]1F` [Example 324, 5-((3S,4R)-3-(ethylamino)-4-fluoropyrrolidin-1-yl)-N-(8-methoxy-2-methylimidazo[1,2-a]pyrazin-6-yl)pyrazine-2-carboxamide] reads 100 to 500 nM. For the compound `CCNC1CN(c2cnc(C(=O)Nc3cn4cc(C)nc4c(OC)n3)cn2)CC1F` [Example 325, 5-((3R,4S)-3-(ethylamino)-4-fluoropyrrolidin-1-yl)-N-(8-methoxy-2-methylimidazo[1,2-a]pyrazin-6-yl)pyrazine-2-carboxamide], the EC50 fell in the range of 100 to 500 nM. In the case of `CCNC1CN(c2cnc(C(=O)Nc3cc(F)c4nc(C)cn4c3)cn2)CC1F` (centres unmarked) [Example 326], the half-maximal effective concentration (EC50) was 100 to 500 nM. On to `Cc1cn2cc(NC(=O)c3cnc(N4CCC(CN5CCCC5)C4)cn3)cc(F)c2n1` (centres unmarked) [Example 327], for which the concentration for a half-maximal effect (EC50) was 100 to 500 nM.

For the compound `CNC1CN(c2ncc(C(=O)Nc3cn4cc(C)nc4c(C)n3)cn2)CC1F` (centres unmarked) [Example 331], the EC50 was 500 to 1000 nM. On the same count and under the same terms, the result for `CNC1CN(c2ncc(C(=O)Nc3cc(F)c4nc(C)cn4c3)cn2)CC1F` (centres unmarked) [Example 332] reads 100 to 500 nM; that for `CCNC1CN(c2ncc(C(=O)Nc3cn4cc(C)nc4c(C)n3)cn2)CC1F` (centres unmarked) [Example 333], 500 to 1000 nM. Take `CCNC1CN(c2ncc(C(=O)Nc3cn4cc(C)nc4c(C)n3)cn2)CC1F` (centres unmarked) [Example 334]: the concentration for a half-maximal effect (EC50) fell in the range of 500 to 1000 nM.

For `Cc1cn2cc(NC(=O)c3cnc(N4CC(CN(C)C5CC5)C4)nc3)cc(F)c2n1` [Example 335, 2-[3-[[cyclopropyl(methyl)amino]methyl]azetidin-1-yl]-N-(8-fluoro-2-methyl-imidazo[1,2-a]pyridin-6-yl)pyrimidine-5-carboxamide], the half-maximal effective concentration (EC50) was 100 to 500 nM.

For `Cc1cn2cc(NC(=O)c3cnc(N4CC5(CNCCO5)C4)cn3)cc(F)c2n1` [Example 338, N-(8-fluoro-2-methylimidazo[1,2-a]pyridin-6-yl)-5-(5-oxa-2,8-diazaspiro[3.5]nonan-2-yl)pyrazine-2-carboxamide], the concentration giving a half-maximal response (EC50) lay within 100 to 500 nM.

Turning to `Cc1nc2c(F)cc(NC(=O)c3cnc(N4CCNC(C)C4)cn3)cc2o1` (centres unmarked) [Example 339, N-(4-fluoro-2-methylbenzo[d]oxazol-6-yl)-5-(3-methylpiperazin-1-yl)pyrazine-2-carboxamide], the concentration giving a half-maximal response (EC50) fell in the range of 1000 to 10000 nM.

Turning to `Cc1nc2c(F)cc(NC(=O)c3cnc(N4CC[C@@H](N)C4)cn3)cc2o1` [Example 340], the EC50 is 100 to 500 nM. As to `Cc1cn2cc(NC(=O)c3cnc(N4CC[C@@H](NC5CC5)C4)cn3)cc(Cl)c2n1` [Example 341], the EC50 was < 100 nM.

For `Cc1cn2cc(NC(=O)c3cnc(N4CC(CN5CC[C@H](F)C5)C4)cn3)cc(Cl)c2n1` [Example 342], the EC50 is 100 to 500 nM. Same read-out and setting: to `Cc1cn2cc(NC(=O)c3cnc(N4CC(CN5CC6C[C@]6(F)C5)C4)cn3)cc(F)c2n1` (stereo partly drawn) [Example 343, N-(8-fluoro-2-methylimidazo[1,2-a]pyridin-6-yl)-5-(3-(((1R)-1-fluoro-3-azabicyclo[3.1.0]hexan-3-yl)methyl)azetidin-1-yl)pyrazine-2-carboxamide] belongs 100 to 500 nM; to `CCN[C@@H]1CCN(c2cnc(C(=O)Nc3cn4cc(C)nc4cc3OC)cn2)C1` [Example 345, (R)-5-(3-(ethylamino)pyrrolidin-1-yl)-N-(7-methoxy-2-methylimidazo[1,2-a]pyridin-6-yl)pyrazine-2-carboxamide], < 100 nM; to `Cc1cn2cc(NC(=O)c3cnc(N4CC[C@@H](NC5CC5)C4=O)cn3)cc(F)c2n1` [Example 348, (R)-5-(3-(cyclopropylamino)-2-oxopyrrolidin-1-yl)-N-(8-fluoro-2-methylimidazo[1,2-a]pyridin-6-yl)pyrazine-2-carboxamide], 100 to 500 nM. The same measure, in the same setting: the result for `CNCC1CN(c2cnc(C(=O)Nc3cc(F)c4nc(C)oc4c3)cn2)C1` [Example 349, N-(4-fluoro-2-methylbenzo[d]oxazol-6-yl)-5-(3-((methylamino)methyl)azetidin-1-yl)pyrazine-2-carboxamide] reads 100 to 500 nM; that for `Cn1cc2cc(NC(=O)c3cnc(N4CC(CN5CC(F)C5)C4)cn3)cc(F)c2n1` [Example 350, N-(7-fluoro-2-methyl-2H-indazol-5-yl)-5-(3-((3-fluoroazetidin-1-yl)methyl)azetidin-1-yl)pyrazine-2-carboxamide], 100 to 500 nM; that for `COc1cc2nn(C)cc2cc1NC(=O)c1cnc(N2CC[C@@H](CNC3CC3)C2)cn1` [Example 351, (S)-5-(3-((cyclopropylamino)methyl)pyrrolidin-1-yl)-N-(6-methoxy-2-methyl-2H-indazol-5-yl)pyrazine-2-carboxamide], 100 to 500 nM. For `Cc1cn2cc(NC(=O)c3cnc(N4C[C@H]5NCCO[C@@H]5C4)cn3)cc(F)c2n1` [Example 352, N-(8-fluoro-2-methylimidazo[1,2-a]pyridin-6-yl)-5-((4aR,7aR)-hexahydropyrrolo[3,4-b][1,4]oxazin-6(2H)-yl)pyrazine-2-carboxamide], the 50% effective concentration (EC50) lay in the range of 500 to 1000 nM. Same read-out and setting: the result for `Cc1cn2cc(NC(=O)c3cnc(N(C)C4CC(C)(C)NC(C)(C)C4)cn3)cc(F)c2n1` [Example 353, N-(8-fluoro-2-methylimidazo[1,2-a]pyridin-6-yl)-5-(methyl(2,2,6,6-tetramethylpiperidin-4-yl)amino)pyrazine-2-carboxamide] reads 100 to 500 nM; that for `CN[C@@H]1CCN(c2cnc(C(=O)Nc3cn4cc(C)nc4c(C)c3F)cn2)C1` [Example 354, N-(7-fluoro-2,8-dimethyl-imidazo[1,2-a]pyridin-6-yl)-5-[(3R)-3-(methylamino)pyrrolidin-1-yl]pyrazine-2-carboxamide], < 100 nM.

The assay is the same for the next values; noted with them: read-out: tHTT EC50; GEN020 hESCs (mutant 48 Q repeat allele), compounds added for 48 hours, TR-FRET on lysate.
Regarding `Cc1cc(NC(=O)c2cnc(N3CC(CNC4CC4)C3)cn2)cn2cc(CF)nc12` [Example 315, 5-(3-((cyclopropylamino)methyl)azetidin-1-yl)-N-(2-(fluoromethyl)-8-methylimidazo[1,2-a]pyridin-6-yl)pyrazine-2-carboxamide], the EC50 fell in the range of 500 to 1000 nM. `Cn1cc2cc(NC(=O)c3cnc(N4CC(CNCC(F)F)C4)cn3)cc(F)c2n1` [Example 323, 5-(3-(((2,2-difluoroethyl)amino)methyl)azetidin-1-yl)-N-(7-fluoro-2-methyl-2H-indazol-5-yl)pyrazine-2-carboxamide]: the EC50 lay within 500 to 1000 nM. On the same count and under the same terms, to `Cc1cc2cc(NC(=O)c3cnc(N4CC(CNC5CC5)C4)cn3)cc(Cl)n2n1` [Example 344, N-(7-chloro-2-methylpyrazolo[1,5-a]pyridin-5-yl)-5-(3-((cyclopropylamino)methyl)azetidin-1-yl)pyrazine-2-carboxamide] belongs 100 to 500 nM.
